We go through six compounds from US7462600B2, “Macrolides” (Pfizer Inc, priority 2004, dated 2008).

Common to all, as to assay type: cell-based
In assay [1] the test system is Streptococcus pyogenes 1079. In words: MIC, microtiter broth dilution (NCCLS M100-S14), S. pyogenes 1079 (ermB). Conditions: Streptococcus pyogenes 1079. The method in brief: (§1)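 Stock solutions of 40 mg/ml in DMSO were used. MIC values came from microtiter-tray broth dilution following NCCLS M100-S14 guidelines.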
On the technique in general: In broth dilution the organism is exposed to a series of concentrations in liquid medium.

The subject of assay [2] is Streptococcus pneumoniae 1016. Kind of assay: MIC, microtiter broth dilution (NCCLS M100-S14), S. pneumoniae 1016 (susceptible). To be noted: Streptococcus pneumoniae 1016. The method in brief: as §1
Assay [3] deals with Streptococcus pneumoniae 1095. Conditions: Streptococcus pneumoniae 1095; microtiter broth dilution. A digest of the protocol: as §1
Assay [4] has as its system Streptococcus pneumoniae 1175. To be noted: Streptococcus pneumoniae 1175; microtiter broth dilution. A digest of the protocol:
as §1

Assay [5] deals with Haemophilus influenzae 1218. In words: MIC, microtiter broth dilution (NCCLS M100-S14), H. influenzae 1218 (susceptible). Conditions: Haemophilus influenzae 1218. A digest of the protocol: as §1

The structures appear in SMILES notation. ≈ marks a conversion by molar mass, not a printed value.

Take `CCC1OC(=O)C(C)C(=O)C(C)C(OC2OC(C)CC(N(C)C)C2O)C(C)(OC)CC(C)C(=O)C(C)C2N(C3CN(C(=O)c4ccc(-n5cccn5)cc4)C3)C(=O)OC12C` (stereo not drawn) [Example 2.13]: the “MIC S. pyogenes 1079” value in assay [1] was over 64.00 µg/mL. In addition, the “MIC S. pneumo. 1016” value in assay [2] was under 0.06 µg/mL. Moreover, the “MIC S. pneumo. 1095” value in assay [3] came out at 2 µg/mL (≈ 2.39 µM). In assay [4], the “MIC S. pneumo. 1175” value amounted to 0.12 µg/mL (≈ 0.143 µM). In assay [5], the “MIC H. influenzae 1218” value stood at 8 µg/mL (≈ 9.55 µM).
Taken in the same sequence, the figures for `CCC1OC(=O)C(C)(F)C(=O)C(C)C(OC2OC(C)CC(N(C)C)C2O)C(C)(OC)CC(C)C(=O)C(C)C2N(C3CN(C(C)c4ccnc5ncccc45)C3)C(=O)OC12C` (stereo not drawn) [Example 1.32, 3-descladinosyl-11,12-dideoxy-2-fluoro-6-O-methyl-3-oxo-12,11-(oxycarbonyl-(1-(1R-(1,8-naphthyridin-4-yl)-ethyl)-azetidin-3-yl)-imino)-erythromycin A] were 0.12 µg/mL (≈ 0.143 µM), under 0.06 µg/mL, under 0.06 µg/mL, 0.25 µg/mL (≈ 0.297 µM) and 0.5 µg/mL (≈ 0.594 µM).
On the same counts, the results for `CCC1OC(=O)C(C)C(=O)C(C)C(OC2OC(C)CC(N(C)C)C2O)C(C)(OC)CC(C)C(=O)C(C)C2N(C3CN(S(=O)(=O)c4cccc(Oc5ccc(F)cc5)c4)C3)C(=O)OC12C` (stereo not drawn) [Example 3.110, 3-descladinosyl-11,12-dideoxy-6-O-methyl-3-oxo-12,11-(oxycarbonyl-(1-(3-(4-fluorophenoxy)benzene-1-sulfonyl)-azetidin-3-yl)-imino)erythromycin A] are 4 µg/mL (≈ 4.36 µM), under 0.063 µg/mL, under 0.063 µg/mL, under 0.063 µg/mL and 2 µg/mL (≈ 2.18 µM).
Taken in the same sequence, the figures for `CCC1OC(=O)C(C)C(=O)C(C)C(OC2OC(C)CC(N(C)C)C2O)C(C)(OC)CC(C)C(=O)C(C)C2N(C3CN(S(=O)(=O)c4cccnc4OC)C3)C(=O)OC12C` (stereo not drawn) [Example 3.37, 2-methoxypyridine-3-sulfonyl] were 16 µg/mL (≈ 19.1 µM), under 0.06 µg/mL, 4 µg/mL (≈ 4.77 µM), under 0.06 µg/mL and 0.5 µg/mL (≈ 0.596 µM).
Consider `CCC1OC(=O)C(C)C(=O)C(C)C(OC2OC(C)CC(N(C)C)C2O)C(C)(OC)CC(C)C(=O)C(C)C2N(C3CN(Cc4c(Br)cnc5ncccc45)C3)C(=O)OC12C` (stereo not drawn) [Example 1.75, 3-descladinosyl-11,12-dideoxy-6-O-methyl-3-oxo-12,11-(oxycarbonyl-(1-(3-bromo-1,8-naphthyridine-4-methyl)-azetidin-3-yl)-imino)-erythromycin A], for which the “MIC S. pyogenes 1079” value in assay [1] was under 0.063 µg/mL. The “MIC S. pneumo. 1016” value in assay [2] was under 0.063 µg/mL. The “MIC S. pneumo. 1095” value in assay [3] was under 0.063 µg/mL. Besides, in assay [4], the “MIC S. pneumo. 1175” value is under 0.063 µg/mL. The “MIC H. influenzae 1218” value in assay [5] was found to be 1 µg/mL (≈ 1.12 µM).
As for `CCC1OC(=O)C(C)C(=O)C(C)C(OC2OC(C)CC(N(C)C)C2O)C(C)(OC)CC(C)C(=O)C(C)C2N(CC3CN(C(c4ccccc4)c4ccccc4)C3)C(=O)OC12C` (stereo not drawn) [Example 4.01, 3-descladinosyl-11,12-dideoxy-6-O-methyl-3-oxo-12,11-(oxycarbonyl-(1-(benzhydryl)-(azetidin-3-yl)-methyl)-imino)-erythromycin A], in assay [1], the “MIC S. pyogenes 1079” value was 6.25 µg/mL (≈ 7.37 µM). Besides, the “MIC S. pneumo. 1016” value in assay [2] is under 0.00 µg/mL. Besides, the “MIC S. pneumo. 1095” value in assay [3] was 0.39 µg/mL (≈ 0.46 µM). Also, in assay [4], the “MIC S. pneumo. 1175” value came to 0.39 µg/mL (≈ 0.46 µM). For the same compound, the “MIC H. influenzae 1218” value in assay [5] amounted to 6.25 µg/mL (≈ 7.37 µM).
